How the values were obtained:
NIH 3T3 cells = test: Col1a1/Col3a1 mRNA expression in dermal fibroblasts (qRT-PCR); format: cell-based, mouse; conditions: for collagen transcription (Col1a1/Col3a1 mRNA): NIH 3T3 stimulated with 1 μM S1P for 24 hours in presence of 10 μM inhibitor
Experimental: Mouse dermal fibroblast NIH 3T3 cells were cultured in DMEM. To analyze the production of collagens, ascorbic acid 2-phosphate (Sigma-Aldrich) was added in culture medium to 0.2 mM of final concentration.
We performed sCA preparation as previously published (23). We mixed 4 μl of 1M CaCl2) with 2 μg of plasmid DNA in 1 mL of an inorganic solution (NaHCO3; 44 mM, NaH2PO4; 0.9 mM, CaCl2); 1.8 mM, pH 7.5), then incubated at 37° C. for 30 min. The solution was centrifuged at 12,000 rpm for 3 min, and the pellet was dissolved with DMEM. We sonicated the solution in a water bath for 10 min to generate sCA. Cells were cultured in 6 well plate for 24 hours, then incubated with sCA-DMEM solution for 6 hours. We changed medium into DMEM with 10% FBS and incubated for additional 48 hours, then collected for total RNA isolation.
Total RNA was extracted using TRIzol® Regent (Invitrogen). cDNA was then synthesized using High Capacity cDNA Reverse Transcription Kits (Applied Biosystems, Foster City, Calif.). qRT-PCR was performed using an CFX96 Real-Time System (Bio-Rad, Hercules, Calif.) with PowerUp SYBR Green master mix (Bio-Rad). GAPDH served as the internal control. Relative expression was calculated using the 2-ΔΔCt method with correction for different amplification efficiencies.

[1] = test system: inflammatory cells in wound; test: Flow cytometry of cells separated from mouse wound tissues; format: in vivo; conditions: 1 uM S1P topical vs vehicle
Text: Mouse excisional wound splinting model were generated as previously published 1. Mice were anesthetized using isoflurane and removed dorsal hair. Two of 5 mm-diameter full-thickness skin punches were created symmetrically besides the midline. 12 mm diameter circle-shaped silicon lubber splints in which 6 mm diameter circles were punched in center were used for wound splinting. […] were fixed with instant-bonding adhesive and sutures around wounds. After application with any ointment, dressings were performed with Tegaderm (3M, Maplewood, Minn.). We performed cell separation from mouse wound tissues as previously published^4. We digested the tissues cut into small pieces in DMEM with 10% FBS, 1.2 mg/ml hyaluronidase (Sigma Aldrich), 2 mg/ml collagenase (Sigma Aldrich), and 0.2 mg/ml DNase I (Sigma Aldrich) at 37° C. for 90 min. Cell pellets were resuspended in PBS with 2% FBS, incubated with anti-CD16/32 antibody (Biolegend, San Diego, Calif.) for 5 min to block Fcγ receptors. For inflammatory cell recruitment analysis, we stained with phycoerythrin (PE)-conjugated anti-Gr-1, allophycocyanin (APC)-conjugated anti-CD3a, PE/CY7 conjugated anti-CD4, or fluorescein isothiocyanate (FITC)-conjugated anti-CD8a antibody (CiteAb, Bath, UK) at 4° C. for 20 min. […] Cells were analyzed with FACSDiva (BD, San Jose, Calif.).

scar neovasculature = test: Neovasculature analysis in scars; format: in vivo, mouse; conditions: S1P treatment vs vehicle, Balb/c mice, at the point of epithelization
Text: We performed neovasculature analysis using standard approaches.

scar = test: Scar thickness analysis (Masson's trichrome); format: in vivo, mouse; conditions: 1 μM S1P topical vs vehicle, at the point of epithelization
Text: We performed H&E, Masson's trichrome staining on paraffin-embedded sections. We used primary antibodies against F4/80, Ki67 and CD34. Immunostaining was developed with VECTASTAIN Universal Elite ABC Kit (Vector, Burlingame, Calif.). We purchased all antibodies from Abcam (Cambridge, UK). We analyzed the results using ImageJ. We calculated scar thickness with Masson's trichrome stain images using ImageJ.

mouse excisional wound = test: Mouse excisional wound splinting model, wound area analysis; format: in vivo
Text: Mouse excisional wound splinting model were generated as previously published 1. Mice were anesthetized using isoflurane and removed dorsal hair. Two of 5 mm-diameter full-thickness skin punches were created symmetrically besides the midline. 12 mm diameter circle-shaped silicon lubber splints in which 6 mm diameter circles were punched in center were used for wound splinting. […] were fixed with instant-bonding adhesive and sutures around wounds. After application with any ointment, dressings were performed with Tegaderm (3M, Maplewood, Minn.). S1P was purchased from Sigma-Aldrich (Carlsbad, Calif.). 1 mM S1P in 4% bovine serum albumin was prepared with sonication, diluted 1000-fold for 1 μM ointment or 10-fold for 100 μM ointment with Aquaphor® and mixed well. We generated sCA with 100 ug plasmid DNA and dissolved the sCA pellet with 50 μl PBS. Then we mixed all of the solution into 200 μl of Aquaphor®. We used 250 μl ointment for 4 wounds of 2 mice. Digital photo images were analyzed using GIMP 2.8 software. The pixels of wound area were normalized by those of inside area of silicon splint. Then, the ratios devised by wound area at day 0 were calculated.

wound tissue = test: Immunohistochemistry of wounds (F4/80, Ki67, CD34); format: in vivo, mouse; conditions: 1 uM S1P topical vs vehicle, day 5 after punch
Text: Mouse excisional wound splinting model were generated as previously published 1. Mice were anesthetized using isoflurane and removed dorsal hair. Two of 5 mm-diameter full-thickness skin punches were created symmetrically besides the midline. 12 mm diameter circle-shaped silicon lubber splints in which 6 mm diameter circles were punched in center were used for wound splinting. […] were fixed with instant-bonding adhesive and sutures around wounds. After application with any ointment, dressings were performed with Tegaderm (3M, Maplewood, Minn.). We performed H&E, Masson's trichrome staining on paraffin-embedded sections. We used primary antibodies against F4/80, Ki67 and CD34. Immunostaining was developed with VECTASTAIN Universal Elite ABC Kit (Vector, Burlingame, Calif.). We purchased all antibodies from Abcam (Cambridge, UK). We analyzed the results using ImageJ.

[2] = NIH 3T3 stimulated with exogenous S1P for 24 hours

SMILES | collagen transcription (Col1a1/Col3a1 mRNA) (NIH 3T3 cells) | recruitment of granulocytes (Gr-1 positive cells) ([1]; day 2 after punch) | percentage of T cells in wounds ([1]; day 5 after punch) | neovasculatures in scars (scar neovasculature) | scar thickness (scar) | transcription of Col1a1 (NIH 3T3 cells; [2]) | transcription of Col3a1 (NIH 3T3 cells; [2]) | wound closure (mouse excisional wound; 1 μM S1P topical treatment vs control vehicle) | wound closure (mouse excisional wound; 100 μM S1P treatment, Balb/c mice) | wound closure (mouse excisional wound; high concentration S1P (100 PM) vs vehicle, C57BL6/J mice) | angiogenesis (CD34 immunohistochemistry) (wound tissue) | cell proliferation (Ki67) (wound tissue)
CCCCCCCCc1cccc(NC(=O)[C@H](N)COP(=O)(O)O)c1 [VPC23019, reference compound] | increased |  |  |  |  |  |  |  |  |  |  | 
Cc1nn(C)c2nc(NNC(=O)Nc3cc(Cl)nc(Cl)c3)cc(C(C)C)c12 [JTE013, reference compound] | increased |  |  |  |  |  |  |  |  |  |  | 
CCCCCCCCCCCCC/C=C/[C@@H](O)[C@@H](N)COP(=O)(O)O [S1P, sphingosine-1-phosphate] |  | does not influence | did not increase | confirmed the development of neovasculatures | statistically significant reduction in scar thickness were not obtained | inhibited | inhibited | significantly promoted | significantly obstructed | no difference | promoting angiogenesis | no effect
